Reference: patent US20110190834A1, “DEVICES AND METHODS FOR SUPPRESSION OF SYMPATHOEXCITATION” (priority 2010, published 2011)
Where two headings read alike, the source gives them in different places.

How the values were obtained:
[1] = European (EMIAT) and Canadian (CAMIAT) post-myocardial infarction studies; cited from earlier work
[2] = Heart rate and blood pressure at peak exercise and in recovery, with atropine given during exercise; format: in vivo, human
Experimental: In experiments performed during development of embodiments of the present invention, the parasympathetic effects on cardiac electrophysiology during the post-exercise recovery period were studied. Subjects underwent upright bicycle exercise testing on two occasions. Continuous 12-lead ECG monitoring was performed using a commercially available system (Quest Exercise Stress System, Burdick, Deerfield Wis.) for a baseline period of 5 minutes prior to exercise. Subjects underwent a 16-minute submaximal exercise protocol on a stationary bicycle with an initial work load of 50 Watts followed by increases to 75 Watts at 4 minutes and 100 Watts at 8 minutes, as tolerated by the patient. Continuous ECG was recorded for up to 45 minutes of recovery. Blood samples for determination of plasma epinephrine and norepinephrine samples were taken during the rest period, at minutes 8 and 15 of exercise, and during the recovery period at 5, 10, 20, 30, and 45 minutes after cessation of exercise. […]

[3] = Atropine test
[4] = atropine test versus baseline test
[5] = peak exercise, iv atropine 0.04 mg/kg from minute 12 of exercise
[6] = recovery 5 min, iv atropine 0.04 mg/kg during exercise
[7] = recovery 10 min, iv atropine 0.04 mg/kg during exercise
[8] = recovery 20 min, iv atropine 0.04 mg/kg during exercise
[9] = recovery 30 min, iv atropine 0.04 mg/kg during exercise

SMILES | effect on total mortality [1] | change in diastolic blood pressure [2, 4] | change in heart rate [2, 4] | change in systolic blood pressure [2, 4] | Diastolic BP [2, 5] | Systolic BP [2, 5] | Diastolic BP [2, 6] | HEART RATE [2, 6] | Systolic BP [2, 6] | Diastolic BP [2, 7] | HEART RATE [2, 7] | Systolic BP [2, 7] | Diastolic BP [2, 8] | HEART RATE [2, 8] | Systolic BP [2, 8] | Diastolic BP [2, 9] | HEART RATE [2, 9] | Systolic BP [2, 9] | ln(NE) mean ([3]; 30th min recovery, N=81) | ln(NE) mean ([3]; rest (before exercise and before atropine), N=90)
CCCCc1oc2ccccc2c1C(=O)c1cc(I)c(OCCN(CC)CC)c(I)c1 [Amiodarone] | has not been shown to have a beneficial effect | – | – | – | – | – | – | – | – | – | – | – | – | – | – | – | – | – | – | –
CN1[C@@H]2CC[C@H]1C[C@@H](OC(=O)C(CO)c1ccccc1)C2 (some centres unmarked) [Atropine, atropine] | – | no detectable changes | large changes in heart rate | no detectable changes | 83 ± 14 mmHg | 162 ± 25 mmHg | 78 ± 9 mmHg | 110 ± 16 bpm | 122 ± 15 mmHg | 78 ± 9 mmHg | 106 ± 16 bpm | 120 ± 16 mmHg | 78 ± 11 mmHg | 102 ± 15 bpm | 118 ± 14 mmHg | 79 ± 9 mmHg | 99 ± 14 bpm | 117 ± 14 mmHg | 6.31 | 6.38
